The target in assay [1] is T1, 5-hydroxytryptamine receptor 1A (Homo sapiens, UniProt P08908).
T1 sequence (P08908 whole entry): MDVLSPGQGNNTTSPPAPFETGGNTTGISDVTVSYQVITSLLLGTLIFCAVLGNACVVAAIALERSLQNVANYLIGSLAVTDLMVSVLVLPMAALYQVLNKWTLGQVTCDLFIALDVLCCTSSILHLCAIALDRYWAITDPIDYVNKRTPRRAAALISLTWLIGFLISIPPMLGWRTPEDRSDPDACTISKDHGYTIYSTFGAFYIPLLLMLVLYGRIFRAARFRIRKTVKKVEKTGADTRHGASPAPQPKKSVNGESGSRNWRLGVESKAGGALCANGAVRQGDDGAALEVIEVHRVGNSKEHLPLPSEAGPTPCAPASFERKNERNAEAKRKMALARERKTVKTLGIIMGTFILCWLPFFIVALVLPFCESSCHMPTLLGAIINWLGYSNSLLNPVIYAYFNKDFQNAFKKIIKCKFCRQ
In words: biochemical.

In assay [2] the target is T1, 5-hydroxytryptamine receptor 1A.
The subject of assay [3] is Rattus norvegicus. In words: Effective dose on the 8-OH-DPAT induced response at 3 mg/kg sc in presence of 8-OH-DPAT (Effective dose value for 8-OH-DPAT = 0.25). Format: functional. The settings on record: route subcutaneous.
Assay [4] addresses T1, 5-hydroxytryptamine receptor 1A. The source holds these as a separate data set.
For assay [5], the system named is Rattus norvegicus. In words: Effective dose on the 8-OH-DPAT induced response at 3 mg/kg sc in presence of 8-OH-DPAT (Effective dose value for 8-OH-DPAT = 0.32). The format is functional. Particulars: route subcutaneous.
For assay [6], the system named is Rattus norvegicus. Briefly: Effective dose on the 8-OH-DPAT induced response at 3 mg/kg sc in presence of 8-OH-DPAT (Effective dose value for 8-OH-DPAT = 0.18). The format is functional. The settings on record: route subcutaneous.
For assay [7], the system named is Rattus norvegicus. Briefly: Effective dose on the 8-OH-DPAT induced response at 3 mg/kg sc in presence of 8-OH-DPAT (Effective dose value for 8-OH-DPAT = 0.17). Particulars: route subcutaneous. Format: functional.

Compound `C[C@@H](CN(C(=O)c1ccc(C#N)cc1)c1ccccn1)N1CCN(c2cccc3c2OCCO3)CC1` had a Ki in assay [1] of 9.2 nM.
On the same count and under the same terms, to `C[C@@H](CN(C(=O)c1ccc([N+](=O)[O-])cc1)c1ccccn1)N1CCN(c2cccc3c2OCCO3)CC1` belongs 3.4 nM.
For `C[C@H](CN(C(=O)c1ccc([N+](=O)[O-])cc1)c1ccccn1)N1CCN(c2cccc3c2OCCO3)CC1`, the IC50 in assay [2] turned out to be 4.3 nM; in assay [4], 23.2 nM. Also, the ED50 in assay [3] was found to be 3.19 mg/kg. Besides, the inhibition constant Ki in assay [1] came out at 1 nM.
On to `C[C@H](CN(C(=O)c1ccc(C(F)(F)F)cc1)c1ccccn1)N1CCN(c2cccc3c2OCCO3)CC1`, for which the values for the IC50 in assay [2] and in assay [4] were 6.2 nM and 32.1 nM, respectively. In assay [5], the 50% effective dose (ED50) was determined as 0.94 mg/kg. Besides, the inhibitory constant (Ki) in assay [1] came to 1.9 nM.
In turn, `C[C@H](CN(C(=O)c1ccc(C#N)cc1)c1ccccn1)N1CCN(c2cccc3c2OCCO3)CC1` [LECOZOTAN] came in with a half-maximal inhibitory concentration (IC50) in assay [4] of 42 nM. Further, the ED50 in assay [6] was determined as 3.68 mg/kg.
In the case of `C[C@@H](CN(C(=O)c1ccc(C(F)(F)F)cc1)c1ccccn1)N1CCN(c2cccc3c2OCCO3)CC1`, the Ki in assay [1] was found to be 8.6 nM.
On to `C[C@H](CN(C(=O)c1ccc(Cl)cc1)c1ccccn1)N1CCN(c2cccc3c2OCCO3)CC1`, for which the ED50 in assay [7] came to 1.82 mg/kg.

These data come from ChEMBL document CHEMBL1139501, “Synthesis and biological evaluation of benzodioxanylpiperazine derivatives as potent serotonin 5-HT(1A) antagonists: the discovery of Lecozotan” (J Med Chem, 2005).
